In the supplement of paper PMC11061612:

What was measured:
SG3199 = compound: CC1=CN2[C@@H](C1)C=NC3=CC(=C(C=C3C2=O)OC)OCCCCCOC4=C(C=C5C(=C4)N=C[C@@H]6CC(=CN6C5=O)C)OC [SG3199]; settings: max 0.001 µM
Outline: (§1)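 In 1536-well plates, cancer cell lines in 7.5 μl DMEM/F12 or RPMI with 10% FBS spent 24 hours at 37°C and 5% CO2 and were then dosed for 72 hours with final DMSO typically 0.2%. Viability was read by CellTiter-Glo 2.0 luminescence and scaled between blank-well and DMSO-well means. The single-agent IC50 was fitted from dose responses using a logistic curve in a non-linear mixed effects model, and that logistic curve had two parameters.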

Venetoclax = compound: CC1(C)CCC(CN2CCN(c3ccc(C(=O)NS(=O)(=O)c4ccc(NCC5CCOCC5)c([N+](=O)[O-])c4)c(Oc4cnc5[nH]ccc5c4)c3)CC2)=C(c2ccc(Cl)cc2)C1 [Venetoclax]; settings: max 1 µM
Outline: as §1

Taselisib = compound: Cc1nc(-c2cn3c(n2)-c2ccc(-c4cnn(C(C)(C)C(N)=O)c4)cc2OCC3)n(C(C)C)n1 [Taselisib]; settings: max 10 µM
Outline: as §1

AZD0156 = compound: CN(C)CCCOc1ccc(-c2ccc3ncc4c(c3c2)n(C2CCOCC2)c(=O)n4C)cn1 [AZD0156]
Outline: as §1

AZD8186 = compound: C[C@@H](Nc1cc(F)cc(F)c1)c1cc(C(=O)N(C)C)cc2c(=O)cc(N3CCOCC3)oc12 [AZD8186]; settings: max 3 µM
Outline: as §1

AZD7648 = compound: Cc1cc2ncnn2cc1Nc1ncc2c(n1)n(C1CCOCC1)c(=O)n2C [AZD7648]; settings: max 10 µM
Outline: as §1

Capivasertib = compound: C1CN(CCC1(C(=O)N[C@@H](CCO)C2=CC=C(C=C2)Cl)N)C3=NC=NC4=C3C=CN4 [Capivasertib]
Outline: as §1

AZD5991 = compound: Cc1c2c(nn1C)CSCc1cc(n(C)n1)CSc1cc(c3ccccc3c1)OCCCc1c(C(=O)O)n(C)c3c-2c(Cl)ccc13 [AZD5991]; settings: max 1 µM
Outline: as §1

AZD6738 = compound: C[C@@H]1COCCN1C2=NC(=NC(=C2)C3(CC3)[S@](=N)(=O)C)C4=C5C=CNC5=NC=C4 [AZD6738]; settings: max 10 µM
Outline: as §1

Alisertib = compound: COc1cc(Nc2ncc3c(n2)-c2ccc(Cl)cc2C(c2c(F)cccc2OC)=NC3)ccc1C(=O)O [Alisertib]; settings: max 10 µM
Outline: as §1

Gefitinib = compound: COc1cc2ncnc(Nc3ccc(F)c(Cl)c3)c2cc1OCCCN1CCOCC1 [Gefitinib]; settings: max 10 µM
Outline: as §1

AZD5153 = compound: COc1nnc2ccc(N3CCC(c4ccc(OCCN5CCN(C)C(=O)[C@H]5C)cc4)CC3)nn12 [AZD5153]; settings: max 1 µM
Outline: as §1

Crizotinib = compound: C[C@@H](Oc1cc(-c2cnn(C3CCNCC3)c2)cnc1N)c1c(Cl)ccc(F)c1Cl [Crizotinib]; settings: max 10 µM
Outline: as §1

SN-38 = compound: CCc1c2c(nc3ccc(O)cc13)-c1cc3c(c(=O)n1C2)COC(=O)[C@]3(O)CC [SN-38]; settings: max 0.3 µM
Outline: as §1

Dasatinib = compound: CC1=C(C(=CC=C1)Cl)NC(=O)C2=CN=C(S2)NC3=CC(=NC(=N3)C)N4CCN(CC4)CCO [Dasatinib]; settings: max 2 µM
Outline: as §1

Savolitinib = compound: C[C@@H](c1ccc2nccn2c1)n1nnc2ncc(-c3cnn(C)c3)nc21 [Savolitinib]; settings: max 1 µM
Outline: as §1

Palbociclib = compound: CC(=O)c1c(C)c2cnc(Nc3ccc(N4CCNCC4)cn3)nc2n(C2CCCC2)c1=O [Palbociclib]; settings: max 10 µM
Outline: as §1

AZD2811 = compound: CCN(CCO)CCCOc1ccc2c(Nc3cc(CC(=O)Nc4cccc(F)c4)[nH]n3)ncnc2c1 [AZD2811]; settings: max 1 µM
Outline: as §1

AZD1775 = compound: C=CCn1c(=O)c2cnc(Nc3ccc(N4CCN(C)CC4)cc3)nc2n1-c1cccc(C(C)(C)O)n1 [AZD1775]
Outline: as §1

Lapatinib = compound: CS(=O)(=O)CCNCc1ccc(-c2ccc3ncnc(Nc4ccc(OCc5cccc(F)c5)c(Cl)c4)c3c2)o1 [Lapatinib]; settings: max 10 µM
Outline: as §1

AZD1390 = compound: CC(C)n1c(=O)n(C)c2cnc3cc(F)c(-c4ccc(OCCCN5CCCCC5)nc4)cc3c21 [AZD1390]; settings: max 0.3 µM
Outline: as §1

Olaparib = compound: O=C(c1cc(Cc2n[nH]c(=O)c3ccccc23)ccc1F)N1CCN(C(=O)C2CC2)CC1 [Olaparib]; settings: max 10 µM
Outline: as §1

Prexasertib = compound: COc1cccc(OCCCN)c1-c1cc(Nc2cnc(C#N)cn2)n[nH]1 [Prexasertib]; settings: max 1 µM
Outline: as §1

AZD4320 = compound: CN(CC[C@H](CSC1=CC=CC=C1)NC2=C(C=C(C=C2)S(=O)(=O)NC(=O)C3=CC=C(C=C3)N4CCC(CC4)[C@H](C5=CC=CC=C5C6=CC=C(C=C6)Cl)O)S(=O)(=O)C(F)(F)F)CCO [AZD4320]; settings: max 1 µM
Outline: as §1

Selumetinib = compound: Cn1cnc2c(F)c(Nc3ccc(Br)cc3Cl)c(C(=O)NOCCO)cc21 [Selumetinib]
Outline: as §1

Doxorubicin = compound: COc1cccc2c1C(=O)c1c(O)c3c(c(O)c1C2=O)C[C@@](O)(C(=O)CO)C[C@@H]3O[C@H]1C[C@H](N)[C@H](O)[C@H](C)O1 [Doxorubicin]; settings: max 1 µM
Outline: as §1

Trametinib = compound: CC(=O)Nc1cccc(-n2c(=O)n(C3CC3)c(=O)c3c(Nc4ccc(I)cc4F)n(C)c(=O)c(C)c32)c1 [Trametinib]; settings: max 1 µM
Outline: as §1

| Cell Line | IC50, cell viability 72 h (SG3199) [µM] | IC50, cell viability 72 h (Venetoclax) [µM] | IC50, cell viability 72 h (Taselisib) [µM] | IC50, cell viability 72 h (AZD0156; max 3 µM) [µM] | IC50, cell viability 72 h (AZD8186) [µM] | IC50, cell viability 72 h (AZD7648) [µM] | IC50, cell viability 72 h (Capivasertib; max 10 µM) [µM] | IC50, cell viability 72 h (AZD5991) [µM] | IC50, cell viability 72 h (AZD6738) [µM] | IC50, cell viability 72 h (Alisertib) [µM] | IC50, cell viability 72 h (Gefitinib) [µM] | IC50, cell viability 72 h (AZD5153) [µM] | IC50, cell viability 72 h (Crizotinib) [µM] | IC50, cell viability 72 h (SN-38) [µM] | IC50, cell viability 72 h (Dasatinib) [µM] | IC50, cell viability 72 h (Savolitinib) [µM] | IC50, cell viability 72 h (Palbociclib) [µM] | IC50, cell viability 72 h (AZD2811) [µM] | IC50, cell viability 72 h (AZD1775; max 3 µM) [µM] | IC50, cell viability 72 h (Lapatinib) [µM] | IC50, cell viability 72 h (AZD1390) [µM] | IC50, cell viability 72 h (Olaparib) [µM] | IC50, cell viability 72 h (Prexasertib) [µM] | IC50, cell viability 72 h (AZD4320) [µM] | IC50, cell viability 72 h (Selumetinib; max 10 µM) [µM] | IC50, cell viability 72 h (Doxorubicin) [µM] | IC50, cell viability 72 h (Trametinib) [µM] | IC50, cell viability 72 h (AZD0156; max 1 µM) [µM] | IC50, cell viability 72 h (Capivasertib; max 3 µM) [µM] | IC50, cell viability 72 h (AZD1775; max 1 µM) [µM] | IC50, cell viability 72 h (Selumetinib; max 3 µM) [µM] |
| --- | --- | --- | --- | --- | --- | --- | --- | --- | --- | --- | --- | --- | --- | --- | --- | --- | --- | --- | --- | --- | --- | --- | --- | --- | --- | --- | --- | --- | --- | --- | --- |
| UACC-257 (Melanoma) | > 0.001 | > 1 | > 10 | > 3 | > 3 | > 10 | > 10 | > 1 | > 10 | > 10 | > 10 | > 1 | > 10 | > 0.3 | > 2 | > 1 | > 10 | > 1 | > 3 | > 10 | > 0.3 | > 10 | > 1 | > 1 | 2.33 | > 1 | 0.0412 |  |  |  |  |
| SUP-M2 (T-Cell Non-Hodgkin's Lymphoma) | > 0.001 | > 1 | > 10 | > 3 | > 3 | > 10 | > 10 | 0.117 | 1.01 | 0.0577 | > 10 | 0.0304 | 0.475 | 0.00156 | > 2 | > 1 | 6.52 | 0.0226 | 0.316 | 6.55 | > 0.3 | 5.4 | 0.0165 | 0.805 | > 10 | 0.0547 | > 1 |  |  |  |  |
| PL4 (Pancreatic Carcinoma) | > 0.001 | > 1 | 2.26 | > 3 | > 3 | > 10 | > 10 | > 1 | 6.41 | 8.07 | > 10 | 0.969 | > 10 | 0.0435 | 0.634 | > 1 | > 10 | > 1 | 1.36 | > 10 | > 0.3 | > 10 | 0.117 | > 1 | > 10 | > 1 | 0.106 |  |  |  |  |
| NMC-G1 (Low Grade Glioma) | > 0.001 | > 1 | > 10 |  | > 3 | > 10 |  | > 1 | > 10 | > 10 |  |  |  | > 0.3 |  |  |  | > 1 |  |  |  | > 10 | > 1 | > 1 |  | > 1 | > 1 | > 1 | > 3 | > 1 | > 3 |
| TUR (Acute Myeloid Leukemia) | > 0.001 | > 1 | 1.21 | > 3 | > 3 | > 10 | 2.86 |  | 3.44 | > 10 | > 10 | > 1 | > 10 | 0.0229 | > 2 | > 1 | > 10 | > 1 | 0.575 | > 10 | > 0.3 | > 10 | 0.0164 | > 1 | > 10 | 0.626 | > 1 |  |  |  |  |
